# How the values were obtained:
# Cholinesterase = Cholinesterase (Homo sapiens, UniProt P06276)
# Acetylcholinesterase = target: T1, Acetylcholinesterase (Rattus norvegicus, UniProt P37136); assay: biochemical
# T1 sequence (P37136 whole entry): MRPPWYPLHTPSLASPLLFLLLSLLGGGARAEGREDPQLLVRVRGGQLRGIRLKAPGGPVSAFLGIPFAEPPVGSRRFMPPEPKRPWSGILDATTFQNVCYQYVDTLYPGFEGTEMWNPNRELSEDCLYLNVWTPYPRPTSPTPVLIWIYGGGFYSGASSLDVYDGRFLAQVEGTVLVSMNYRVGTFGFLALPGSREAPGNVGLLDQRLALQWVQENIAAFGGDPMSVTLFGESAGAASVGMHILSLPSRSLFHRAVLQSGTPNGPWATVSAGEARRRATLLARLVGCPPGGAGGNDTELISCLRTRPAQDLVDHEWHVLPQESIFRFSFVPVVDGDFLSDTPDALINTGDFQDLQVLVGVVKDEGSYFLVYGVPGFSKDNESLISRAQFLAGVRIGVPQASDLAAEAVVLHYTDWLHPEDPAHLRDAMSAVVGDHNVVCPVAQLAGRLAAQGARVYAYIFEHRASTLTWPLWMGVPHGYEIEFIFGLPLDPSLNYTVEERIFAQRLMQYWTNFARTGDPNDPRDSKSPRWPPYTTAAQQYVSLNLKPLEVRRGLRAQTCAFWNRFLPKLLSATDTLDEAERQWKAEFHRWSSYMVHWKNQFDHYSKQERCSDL
# Chain of Cholinesterase (P06276 whole entry): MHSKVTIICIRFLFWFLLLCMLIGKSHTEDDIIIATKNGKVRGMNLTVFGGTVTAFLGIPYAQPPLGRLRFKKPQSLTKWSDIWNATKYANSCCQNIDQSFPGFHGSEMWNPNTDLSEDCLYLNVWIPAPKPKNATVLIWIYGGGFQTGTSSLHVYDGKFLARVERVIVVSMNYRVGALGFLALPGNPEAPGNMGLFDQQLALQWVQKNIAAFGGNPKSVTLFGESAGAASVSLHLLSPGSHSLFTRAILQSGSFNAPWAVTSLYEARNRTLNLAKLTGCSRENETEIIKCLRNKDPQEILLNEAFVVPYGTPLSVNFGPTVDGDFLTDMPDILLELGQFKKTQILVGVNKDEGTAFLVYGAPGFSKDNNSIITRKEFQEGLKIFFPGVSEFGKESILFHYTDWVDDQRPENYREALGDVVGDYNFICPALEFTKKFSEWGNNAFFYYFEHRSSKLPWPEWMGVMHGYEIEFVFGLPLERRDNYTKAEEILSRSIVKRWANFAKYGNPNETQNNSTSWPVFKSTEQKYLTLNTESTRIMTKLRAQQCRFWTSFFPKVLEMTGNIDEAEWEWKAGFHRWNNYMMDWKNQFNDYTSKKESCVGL
SMILES,IC50 (Cholinesterase) [nM],IC50 (Acetylcholinesterase) [nM]
c1ccc2c(NCCCCCCCCNc3c4c(nc5ccccc35)CCCCC4)c3c(nc2c1)CCCCC3,3.8,
Clc1ccc2c(NCCCCCCCNc3c4c(nc5cc(Cl)ccc35)CCCC4)c3c(nc2c1)CCCC3,26,0.07
c1ccc2c(NCCCCCCCNc3c4c(nc5ccccc35)CCCCC4)c3c(nc2c1)CCCCC3,2.6,
c1ccc2c(NCCCCCCNc3c4c(nc5ccccc35)CCCCC4)c3c(nc2c1)CCCCC3,3.3,2.5
Fc1ccc2c(NCCCCCCCCNc3c4c(nc5cc(F)ccc35)CCCC4)c3c(nc2c1)CCCC3,164,0.7
c1ccc2c(NCCCCCCCNc3c4c(nc5ccccc35)CCCC4)c3c(nc2c1)CCCC3,54,
c1ccc2c(NCCCCCCNc3c4c(nc5ccccc35)CCC4)c3c(nc2c1)CCC3,273,
Clc1ccc2c(NCCCCCCNc3c4c(nc5cc(Cl)ccc35)CCCC4)c3c(nc2c1)CCCC3,312,0.6
c1ccc2c(NCCCCCCNc3c4c(nc5ccccc35)CCCC4)c3c(nc2c1)CCCC3,83,1.4
c1ccc2c(NCCCCCCCCNc3c4c(nc5ccccc35)CCC4)c3c(nc2c1)CCC3,165,
Fc1ccc2c(NCCCCCCCNc3c4c(nc5cc(F)ccc35)CCCC4)c3c(nc2c1)CCCC3,257,0.6
Fc1ccc2c(NCCCCCCNc3c4c(nc5cc(F)ccc35)CCCC4)c3c(nc2c1)CCCC3,45,0.9
c1ccc2c(NCCCCCCCCNc3c4c(nc5ccccc35)CCCC4)c3c(nc2c1)CCCC3,53,1.6
c1cnc2nc3c(c(NCCCCCCNc4c5c(nc6ncccc46)CCCC5)c2c1)CCCC3,93,
c1cnc2nc3c(c(NCCCCCCCCNc4c5c(nc6ncccc46)CCCC5)c2c1)CCCC3,23,
c1ccc2c(NCCCCCCCNc3c4c(nc5ccccc35)CCC4)c3c(nc2c1)CCC3,328,75
c1cnc2nc3c(c(NCCCCCCCNc4c5c(nc6ncccc46)CCCC5)c2c1)CCCC3,59,1.3

# — ChEMBL document CHEMBL1135422 (J Med Chem, 2002)
